From patent US12653903B2, “Nanoparticle and use thereof for the combinatorial therapy of endoplasmic reticulum stress inducer and immunotherapeutic to tumors and immune cells” (National Yang Ming Chiao Tung University, priority 2023, dated 2026) come the findings set out here.

Molecules are shown by their SMILES.

By IC30 is commonly meant the concentration at which the effect reaches the 30% level.

The experiment deals with Panc-02 cells. Particulars: concentration used as equivalent CB dose. The protocol: Panc-02 cells or NIT-cells were seeded in 96-well plates. Cells were treated with various miR or CB-loaded SLNs formulations. TCA was used to fix the cells after treatment. The wells were then stained with sulforhodamine B (SRB) and rapidly rinsed with acetic acid. Following air drying. Tris base was added to each well, and the plates were examined using an ELISA reader. Cell viability (%)=(The absorbance value of treated cells)(The absorbance value of untreated cells)×100

Regarding `Cc1cc2c(C(N)=O)cccc2n1-c1nc2c(c(NCc3ccccc3)n1)COCC2` [CB, CB-5083], the IC30 was determined as 210 nM.
